From EP3072956A1, “Selective culture medium for polymyxin-resistant, gram-negative bacteria” (priority 2015, dated 2016)

Tests used:
E. coli = test: MIC determination by broth microdilution (MHB-CA, CLSI); assay type: cell-based
Protocol: (§1) Determination of MIC values were performed by broth microdilution in Cation-Adjusted Mueller-Hinton broth (MHB-CA) according to the CLSI guidelines (Clinical and Laboratory Standards Institute). Polymyxin B and colistin (Sigma-Aldrich, Saint-Louis) were tested with or without Tween 80 over a range dilution from 0.12 to 128 µg/ml. The surfactant Tween 80, at a final concentration of 0.002%, prevents the binding of polymyxins to multi-array plastic panel. Actually, the use of Tween for determination of MIC of polymyxins is still debatable. MHB-CA broth and 5.10^5 CFU/ml of each tested strain were distributed in each well. Following the EUCAST breakpoints, strains were characterized as susceptible or resistant to polymyxins.

P. vulgaris = test: as above; assay type: cell-based; settings: strain Pvul
Protocol: as §1

[1] = strain ATCC 25922, With Tween80
[2] = strain ATCC 25922, Without Tween80
[3] = strain Eco OmpC-OmpF-, With Tween80
[4] = strain Eco OmpC-OmpF-, Without Tween80

Substance | MIC (E. coli; strain 36A6, With Tween80) | MIC (E. coli; strain 36A6, Without Tween80) | MIC (E. coli; strain 36D7, With Tween80) | MIC (E. coli; strain 36D7, Without Tween80) | MIC (E. coli; strain 38D6, With Tween80) | MIC (E. coli; strain 38D6, Without Tween80) | MIC (E. coli; strain 27563, With Tween80) | MIC (E. coli; strain 27563, Without Tween80) | MIC (E. coli; strain 27837, With Tween80) | MIC (E. coli; strain 27837, Without Tween80) | MIC (E. coli; strain 27850, With Tween80) | MIC (E. coli; strain 27850, Without Tween80) | MIC (E. coli; strain 27852, With Tween80) | MIC (E. coli; strain 27852, Without Tween80) | MIC (E. coli; strain 28509, With Tween80) | MIC (E. coli; strain 28509, Without Tween80) | MIC (E. coli; strain 30742, With Tween80) | MIC (E. coli; strain 30742, Without Tween80) | MIC (E. coli; [1]) | MIC (E. coli; [2]) | other results
polymyxin B | 0.12 µg/mL | 0.12 µg/mL | 0.12 µg/mL | 0.12 µg/mL | 0.12 µg/mL | 0.12 µg/mL | 8 µg/mL | 16 µg/mL | 8 µg/mL | 8 µg/mL | 8 µg/mL | 8 µg/mL | 4 µg/mL | 4 µg/mL | 2 µg/mL | 2 µg/mL | 4 µg/mL | 4 µg/mL | 0.12 µg/mL | 0.25 µg/mL | MIC (E. coli; strain C140, With Tween80): 0.12 µg/mL; MIC (E. coli; strain C140, Without Tween80): 0.25 µg/mL; MIC (E. coli; [3]): 0.12 µg/mL; MIC (E. coli; [4]): 0.125 µg/mL; MIC (P. vulgaris; With Tween80): >128 µg/mL; MIC (P. vulgaris; Without Tween80): >128 µg/mL
colistin | 0.12 µg/mL | 0.12 µg/mL | 0.12 µg/mL | 0.25 µg/mL | 0.12 µg/mL | 0.25 µg/mL | 8 µg/mL | 16 µg/mL | 8 µg/mL | 16 µg/mL | 8 µg/mL | 16 µg/mL | 8 µg/mL | 8 µg/mL | 4 µg/mL | 4 µg/mL | 4 µg/mL | 8 µg/mL | 0.12 µg/mL | 0.25 µg/mL | MIC (E. coli; strain C140, With Tween80): 0.12 µg/mL; MIC (E. coli; strain C140, Without Tween80): 0.12 µg/mL; MIC (E. coli; [3]): 0.12 µg/mL; MIC (E. coli; [4]): 0.12 µg/mL; MIC (P. vulgaris; With Tween80): >128 µg/mL; MIC (P. vulgaris; Without Tween80): >128 µg/mL
